Assay results: publication PMC7519074, “Polar functional group-containing glycolipid CD1d ligands modulate cytokine-biasing responses and prevent experimental colitis” (Scientific Reports, 2020)
≈ marks a conversion by molar mass, not a printed value. Values belong to the molecule of their own block, whether it stands above or below them.

Assays:
mouse splenocytes = test: Cytokine secretion assay using mouse splenocyte; format: cell-based, C57BL/6 mice; design: IFN-γ production / IL-4 production / IL-17A production: unit not given here; conditions: for Relative ratio IL-4/IFN-γ of cytokine production compared to α-GalCer / Relative ratio IL-17A/IFN-γ of cytokine production compared to α-GalCer: 1 nM; for Relative ratio IL-4/IFN-γ of cytokine production compared to α-GalCer: Fig. 5a; for Relative ratio IL-17A/IFN-γ of cytokine production compared to α-GalCer: Fig. 5b; for IL-4 production / IL-17A production / IFN-γ production: 48 h; for cytokine polarization in words: from relative ratios, Fig. 5
Procedure: Spleen cell suspensions (from C57BL/6 mice) were prepared in complete medium (RPMI 1,640 media supplemented with 10% FBS and 1% penicillin–streptomycin) and seeded into 96-well plates (6.0 × 10^5 cells/well). Lipid ligands were added, and the mixture were incubated at 37 °C for 48 h. IFN-γ, IL-4 and IL-17A release were measured with an ELISA kit (Affymetrix).

mCD1d-Fc fusion protein [1] = target: T1, mCD1d-Fc fusion protein (Mus musculus, UniProt P11609); test: Antigen presenting cell (APC)-free assay for lipid binding to mCD1d-Fc; IL-2 release by 2E10 NKT hybridoma cells; format: cell-based; design: unit not given here; conditions: mean ± SEM; for IL-2 production (exact values of IL-2): ligand 10 nM, Fig. 3a, b; for IL-2 production: ligand 100 nM, Fig. 3c, d
T1 construct: Ig (mouse immunoglobulin fusion partner); purchased BD Biosciences
T1 sequence (P11609 22-305 limits assumed): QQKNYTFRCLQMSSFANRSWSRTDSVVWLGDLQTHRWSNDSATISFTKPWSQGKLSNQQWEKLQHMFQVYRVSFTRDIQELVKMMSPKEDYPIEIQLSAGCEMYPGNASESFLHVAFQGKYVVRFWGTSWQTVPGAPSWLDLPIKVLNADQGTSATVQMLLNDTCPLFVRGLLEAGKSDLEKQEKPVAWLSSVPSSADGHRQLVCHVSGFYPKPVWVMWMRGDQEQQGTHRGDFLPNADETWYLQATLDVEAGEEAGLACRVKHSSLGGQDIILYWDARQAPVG
T1 sequence (P01887 21-119 partner): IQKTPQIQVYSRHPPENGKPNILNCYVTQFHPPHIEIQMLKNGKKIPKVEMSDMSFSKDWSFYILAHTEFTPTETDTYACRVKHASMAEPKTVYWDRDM
Procedure: NKT hybridoma 2E10 cells were cultured in RPMI-1640 (NACALAI TESQUE, INC) supplemented with 10% fetal bovine serum (FBS; Biowest), and 1% penicillin–streptomycin (Gibco).
For this assay, 96-well microplates (Bio-one 96-well cell culture plate, Greiner) were coated with mouse CD1d:Ig Fusion protein (BD Biosciences) (0.25 μg/well) in PBS at 37 °C for 24 h. […] After washing, 2E10 NKT hybridoma cells (2.5 × 10^5 cells/well) were added and cultured at 37 °C for 48 h. IL-2 release was measured with an ELISA kit (Affymetrix).

mCD1d-Fc fusion protein [2] = target: T1, mCD1d-Fc fusion protein; design: method as in PMID 27648599; conditions: previously reported; cited from earlier work
[3] = Metabolic stability, human liver microsome; format: in vitro ADME; conditions: for half-life: liver microsomes, read-out: metabolic stability (liver microsome, T1/2) human
[4] = Metabolic stability, rat liver microsome; format: in vitro ADME; conditions: for half-life: liver microsomes, read-out: metabolic stability (liver microsome, T1/2) rat
Water solubility = format: physicochemical
[5] = Table S1, dash = below the detection limit (< 5 μM) according to b25

- IL-2 production (exact values of IL-2) (mCD1d-Fc fusion protein [1]): 74 ± 26
SMILES: CCCCCCCCCCCCCC[C@@H](O)[C@@H](O)[C@H](CO[C@H]1O[C@H](CO)[C@H](O)[C@H](O)[C@H]1O)NC(=O)CCCCCCCCCCCNCCCCCCC [6b]
- Relative ratio IL-4/IFN-γ of cytokine production compared to α-GalCer (mouse splenocytes): 18.3 ± 6.8
- Relative ratio IL-17A/IFN-γ of cytokine production compared to α-GalCer (mouse splenocytes): 66.7 ± 27.4
- IL-4 production (mouse splenocytes; 10 nM ligand, Fig. 4e): 513 ± 11
- IL-17A production (mouse splenocytes; 10 nM ligand, Fig. 4f): 990 ± 101
- IFN-γ production (mouse splenocytes; 10 nM ligand, Fig. 4d): 3,764 ± 450
- cytokine polarization in words (mouse splenocytes): IL-4- and IL-17A-biasing properties

- metabolic stability in words [3]: good metabolic stability
- half-life [3]: > 200 min
- IL-2 production (exact values of IL-2) (mCD1d-Fc fusion protein [1]): 662 ± 46
- metabolic stability in words [4]: good metabolic stability
- half-life [4]: > 200 min
- solubility (Water solubility; detection limit 5 μM): 5 µM (≈ 3.95 µg/mL)
SMILES: CCCCCCCCCCCCCC[C@@H](O)[C@@H](O)[C@H](CO[C@H]1O[C@H](CO)[C@H](O)[C@H](O)[C@H]1O)NC(=O)CCCCCCCCCCCNC(=O)CCCCCC [1b]
- cytokine production / agonistic activity relative to α-GalCer, in words (mCD1d-Fc fusion protein [2]): higher levels of cytokine production relative to that caused by α-GalCer
- IFN-γ production (mouse splenocytes; 1 nM ligand, Fig. S2a): 822 ± 11
- IL-17A production (mouse splenocytes; 1 nM ligand, Fig. S2c): 976 ± 207
- Relative ratio IL-4/IFN-γ of cytokine production compared to α-GalCer (mouse splenocytes): 5.04 ± 0.90
- Relative ratio IL-17A/IFN-γ of cytokine production compared to α-GalCer (mouse splenocytes): 6.43 ± 1.27
- cytokine polarization in words (mouse splenocytes): IL-4- and IL-17A-biasing properties

- IL-2 production (exact values of IL-2) (mCD1d-Fc fusion protein [1]): 546 ± 87
SMILES: CCCCCCCCCCCCCC[C@@H](O)[C@@H](O)[C@H](CO[C@H]1O[C@H](CO)[C@H](O)[C@H](O)[C@H]1O)NC(=O)CCCCCCCCCCCN(C)C(=O)CCCCCC [4b]
- IL-4 production (mouse splenocytes; 10 nM ligand, Fig. 4e): 743 ± 11
- IL-17A production (mouse splenocytes; 10 nM ligand, Fig. 4f): 2095 ± 190
- IFN-γ production (mouse splenocytes; 10 nM ligand, Fig. 4d): 17,753 ± 542

- IL-2 production (mCD1d-Fc fusion protein [1]): 334 ± 19
SMILES: CCCCCC/C=C/CCCCCCCCCCCC(=O)N[C@@H](CO[C@H]1O[C@H](CO)[C@H](O)[C@H](O)[C@H]1O)[C@H](O)[C@H](O)CCCCCCCCCCCCCC [8b]

SMILES: CCCCCCCCCCCCCCCCCCCC(=O)N[C@@H](CO[C@H]1O[C@H](CO)[C@H](O)[C@H](O)[C@H]1O)[C@H](O)[C@H](O)CCCCCCCCCCCCCC [C20:0-α-GalCer, reference compound]
- IL-4 production (mouse splenocytes; 10 nM ligand, Fig. 4e): 85 ± 52
- IL-17A production (mouse splenocytes; 10 nM ligand, Fig. 4f): 696 ± 38
- IFN-γ production (mouse splenocytes; 10 nM ligand, Fig. 4d): 1,353 ± 731

- IL-2 production (exact values of IL-2) (mCD1d-Fc fusion protein [1]): 424 ± 32
SMILES: CCCCCCCCCCCCCC[C@@H](O)[C@@H](O)[C@H](CO[C@H]1O[C@H](CO)[C@H](O)[C@H](O)[C@H]1O)NC(=O)CCCCCCCCCCCCC(=O)CCCCCCCCCCCC [7a]

- IL-2 production (mCD1d-Fc fusion protein [1]): 1626 ± 371
SMILES: CCCCCCCCCCCC/C=C/CCCCCCCCCCCC(=O)N[C@@H](CO[C@H]1O[C@H](CO)[C@H](O)[C@H](O)[C@H]1O)[C@H](O)[C@H](O)CCCCCCCCCCCCCC [8a]

- IL-2 production (exact values of IL-2) (mCD1d-Fc fusion protein [1]): 85 ± 26
SMILES: CCCCCCCCCCCCCC[C@@H](O)[C@@H](O)[C@H](CO[C@H]1O[C@H](CO)[C@H](O)[C@H](O)[C@H]1O)NC(=O)CCCCCCCCCCCNC(=O)NCCCCCCCCCCC [5a]

- IL-2 production (mCD1d-Fc fusion protein [1]): 1556 ± 91
SMILES: CCCCCCCCCCCC/C=C\CCCCCCCCCCCC(=O)N[C@@H](CO[C@H]1O[C@H](CO)[C@H](O)[C@H](O)[C@H]1O)[C@H](O)[C@H](O)CCCCCCCCCCCCCC [9a]

- IL-2 production (mCD1d-Fc fusion protein [1]): 925 ± 57
SMILES: CCCCCC/C=C\CCCCCCCCCCCC(=O)N[C@@H](CO[C@H]1O[C@H](CO)[C@H](O)[C@H](O)[C@H]1O)[C@H](O)[C@H](O)CCCCCCCCCCCCCC [9b]

- metabolic stability in words [3]: good metabolic stability
- half-life [3]: > 200 min
- IL-2 production (exact values of IL-2) (mCD1d-Fc fusion protein [1]): 323 ± 41
- metabolic stability in words [4]: good metabolic stability
- half-life [4]: > 200 min
- solubility (Water solubility; [5]): < 5 µM
SMILES: CCCCCCCCCCCCCC[C@@H](O)[C@@H](O)[C@H](CO[C@H]1O[C@H](CO)[C@H](O)[C@H](O)[C@H]1O)NC(=O)CCCCCCCCCCCNCCCCCCCCCCCCC [6a]
- IFN-γ production (mouse splenocytes; 1 nM ligand, Fig. 4a): 8,515 ± 1,016
- IL-4 production (mouse splenocytes; 1 nM ligand, Fig. 4b): 286 ± 12

- metabolic stability in words [3]: metabolized more rapidly
- half-life [3]: 15 min
- IL-2 production (exact values of IL-2) (mCD1d-Fc fusion protein [1]): 749 ± 92
- metabolic stability in words [4]: metabolized more rapidly
- half-life [4]: 23 min
- solubility (Water solubility; [5]): < 5 µM
SMILES: CCCCCCCCCCCCCC[C@@H](O)[C@@H](O)[C@H](CO[C@H]1O[C@H](CO)[C@H](O)[C@H](O)[C@H]1O)NC(=O)CCCCCCCCCCCN(C)C(=O)CCCCCCCCCCCC [4a]
- IFN-γ production (mouse splenocytes; 1 nM ligand, Fig. 4a): 39,159 ± 4,960
- IL-4 production (mouse splenocytes; 1 nM ligand, Fig. 4b): 599 ± 13

- IL-2 production (exact values of IL-2) (mCD1d-Fc fusion protein [1]): 376 ± 92
SMILES: CCCCCCCCCCCCCC[C@@H](O)[C@@H](O)[C@H](CO[C@H]1O[C@H](CO)[C@H](O)[C@H](O)[C@H]1O)NC(=O)CCCCCCCCCCCNC(=O)NCCCCC [5b]
- IL-4 production (mouse splenocytes; 10 nM ligand, Fig. 4e): 723 ± 73
- IL-17A production (mouse splenocytes; 10 nM ligand, Fig. 4f): 1774 ± 278
- IFN-γ production (mouse splenocytes; 10 nM ligand, Fig. 4d): 10,799 ± 950

- metabolic stability in words [3]: good metabolic stability
- half-life [3]: 60 min
- IL-2 production (exact values of IL-2) (mCD1d-Fc fusion protein [1]): 177 ± 27
- IL-2 production (mCD1d-Fc fusion protein [1]): 2,502 ± 114
- metabolic stability in words [4]: good metabolic stability
- half-life [4]: 47 min
- solubility (Water solubility; [5]): < 5 µM
SMILES: CCCCCCCCCCCCCC[C@@H](O)[C@@H](O)[C@H](CO[C@H]1O[C@H](CO)[C@H](O)[C@H](O)[C@H]1O)NC(=O)CCCCCCCCCCCNC(=O)CCCCCCCCCCCC [1a]
- cytokine production / agonistic activity relative to α-GalCer, in words (mCD1d-Fc fusion protein [2]): higher levels of cytokine production relative to that caused by α-GalCer
- IFN-γ production (mouse splenocytes; 1 nM ligand, Fig. 4a): 16,907 ± 3,679
- IL-4 production (mouse splenocytes; 1 nM ligand, Fig. 4b): 247 ± 19
- IFN-γ production (mouse splenocytes; 1 nM ligand, Fig. S2a): 9,152 ± 373
- IL-4 production (mouse splenocytes; 1 nM ligand, Fig. S2b): 232 ± 41
- IL-17A production (mouse splenocytes; 1 nM ligand, Fig. S2c): 1,276 ± 60
- Relative ratio IL-4/IFN-γ of cytokine production compared to α-GalCer (mouse splenocytes): 1.27 ± 0.23
- Relative ratio IL-17A/IFN-γ of cytokine production compared to α-GalCer (mouse splenocytes): 0.76 ± 0.06
- cytokine polarization in words (mouse splenocytes): relatively less selective cytokine responses

- IL-2 production (exact values of IL-2) (mCD1d-Fc fusion protein [1]): 600 ± 20
SMILES: CCCCCCCCCCCCCC[C@@H](O)[C@@H](O)[C@H](CO[C@H]1O[C@H](CO)[C@H](O)[C@H](O)[C@H]1O)NC(=O)CCCCCCCCCCCCC(=O)CCCCCC [7b]
- Relative ratio IL-4/IFN-γ of cytokine production compared to α-GalCer (mouse splenocytes): 12.7 ± 4.0
- Relative ratio IL-17A/IFN-γ of cytokine production compared to α-GalCer (mouse splenocytes): 48.6 ± 15.6
- IL-4 production (mouse splenocytes; 10 nM ligand, Fig. 4e): 448 ± 40
- IL-17A production (mouse splenocytes; 10 nM ligand, Fig. 4f): 656 ± 69
- IFN-γ production (mouse splenocytes; 10 nM ligand, Fig. 4d): 4,276 ± 261
- cytokine polarization in words (mouse splenocytes): IL-4- and IL-17A-biasing properties
